Test systems include HCC-2998 colon; HCT-15 colon; HL-60(TB) leukemia; HOP-92 NSCLC; HT29 colon; LOX IMVI melanoma; MDA-MB-231 breast; MDA-MB-435; NCI/ADR-RES ovarian; OVCAR-3 ovarian; OVCAR-8 ovarian; RPMI-8226 leukemia; RXF 393 renal; SF-295 CNS; SK-MEL-2 melanoma; SK-MEL-28 melanoma; SK-OV-3 ovarian; SW-620 colon; T-47D breast; TK-10 renal.
Holding throughout (test): growth of human tumour cells (NCI), 48 h

The results in this text go back to PubChem BioAssay (NCI).

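The compound was tested at five concentrations on cells cultured in 96-well plates, with a 48-hour exposure period. TGI: total growth inhibition.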 Where only a bound is given, the exact number is not on record here.

For `C[C@]12CC[C@H]3[C@@H](CC=C4C[C@@H](O)CC[C@@]43C)[C@@H]1C/C(=C/c1ccccc1)[C@@H]2O`, the TGI was greater than 60.3 µM with HCC-2998 colon; greater than 100 µM in the assay with HCT-15 colon; greater than 100 µM with HL-60(TB) leukemia; greater than 69.6 µM in the assay with HOP-92 NSCLC; greater than 79.3 µM with HT29 colon; greater than 50.2 µM in the assay with LOX IMVI melanoma. In addition, the TGI in the assay on MDA-MB-231 breast is greater than 76.9 µM; with MDA-MB-435, greater than 83.4 µM; in the assay on NCI/ADR-RES ovarian, greater than 89.1 µM; in the assay with OVCAR-3 ovarian, 43.3 µM; with OVCAR-8 ovarian, 52.1 µM; in the assay with RPMI-8226 leukemia it was greater than 100 µM. In addition, the TGI was greater than 57 µM with RXF 393 renal; greater than 65.9 µM with SF-295 CNS; 57.9 µM in the assay with SK-MEL-2 melanoma; greater than 91.2 µM in the assay on SK-MEL-28 melanoma; greater than 66.7 µM in the assay with SK-OV-3 ovarian; greater than 100 µM in the assay with SW-620 colon. In addition, the TGI is greater than 59.1 µM in the assay with T-47D breast and greater than 53.3 µM in the assay with TK-10 renal.

As for `COC(=O)[C@H](Cc1c[nH]c2ccccc12)NP(=O)(O)OC[C@H]1O[C@@H](n2cc(C)c(=O)[nH]c2=O)C[C@@H]1N=[N+]=[N-]`, the TGI with HCC-2998 colon, in the assay with HCT-15 colon, with HL-60(TB) leukemia, in the assay on HOP-92 NSCLC, in the assay on HT29 colon and in the assay with LOX IMVI melanoma was greater than 100 µM in each case. Besides, the TGI in the assay with MDA-MB-231 breast, in the assay with MDA-MB-435, in the assay on NCI/ADR-RES ovarian, with OVCAR-3 ovarian, with OVCAR-8 ovarian and with RPMI-8226 leukemia was greater than 100 µM each time. The TGI with RXF 393 renal, in the assay with SF-295 CNS, in the assay with SK-MEL-2 melanoma, in the assay with SK-OV-3 ovarian, in the assay on SW-620 colon and with T-47D breast was greater than 100 µM in each case. In the assay with TK-10 renal, this compound showed a TGI greater than 100 µM.

For `Cc1occc1C(=S)Nc1ccc(Cl)c(/C=N/OC(C)(C)C)c1`, the TGI with HCC-2998 colon is 34.2 µM; with HCT-15 colon, 31.2 µM; with HL-60(TB) leukemia, 51.5 µM; with HOP-92 NSCLC, 26.5 µM; in the assay with HT29 colon, 28.5 µM; in the assay on LOX IMVI melanoma, 29.2 µM. For the same compound, the TGI came out at 42.3 µM with MDA-MB-231 breast; 31.7 µM in the assay with MDA-MB-435; 32.7 µM in the assay with NCI/ADR-RES ovarian; 31.3 µM in the assay with OVCAR-3 ovarian; 38.8 µM in the assay on OVCAR-8 ovarian; 47.8 µM in the assay on RPMI-8226 leukemia. Also, the TGI is 31.1 µM with RXF 393 renal; 28.5 µM in the assay on SF-295 CNS; 39.5 µM in the assay with SK-MEL-2 melanoma; 34.4 µM in the assay on SK-MEL-28 melanoma; 58.7 µM with SK-OV-3 ovarian; 36.9 µM with SW-620 colon. For the same compound, the TGI with T-47D breast was found to be 42.6 µM; with TK-10 renal, 49.8 µM.

In the case of `Cn1c(=O)c2c(nc3sc4c(n32)C(=O)c2c(O)ccc(O)c2C4=O)n(C)c1=O`, the TGI in the assay with HCC-2998 colon worked out at 17.5 µM; in the assay with HCT-15 colon, 4.72 µM; in the assay with HL-60(TB) leukemia, 2.83 µM; with HOP-92 NSCLC, 7.93 µM; in the assay on HT29 colon it was 4.34 µM; in the assay on LOX IMVI melanoma, 2.75 µM. The TGI was 5.26 µM in the assay on MDA-MB-231 breast; 15.5 µM with MDA-MB-435; 17.1 µM in the assay on NCI/ADR-RES ovarian; greater than 20.9 µM with OVCAR-3 ovarian; 11 µM in the assay on OVCAR-8 ovarian; 2.04 µM with RPMI-8226 leukemia. The TGI in the assay with RXF 393 renal was 5.59 µM; with SF-295 CNS, greater than 100 µM; with SK-MEL-2 melanoma it was 17.5 µM; with SK-MEL-28 melanoma it was 21.3 µM; in the assay on SK-OV-3 ovarian it was greater than 100 µM; in the assay on SW-620 colon, 1.78 µM. Besides, the TGI stood at 7.6 µM with T-47D breast and 15.2 µM in the assay on TK-10 renal.

For `C=C(C)[C@@]1(O)CCCC[C@@H]1CC(Sc1ccccc1)Sc1ccccc1`, the TGI with HCC-2998 colon was found to be 32.4 µM; with HCT-15 colon it was 33.3 µM; in the assay on HL-60(TB) leukemia, 78.4 µM; with HOP-92 NSCLC it was 18.9 µM; in the assay with HT29 colon, 42.5 µM; in the assay on LOX IMVI melanoma, 31.2 µM. In addition, the TGI in the assay with MDA-MB-231 breast is 38.7 µM; in the assay with MDA-MB-435, 33 µM; with NCI/ADR-RES ovarian, 34 µM; in the assay on OVCAR-8 ovarian, 38.6 µM; in the assay with RPMI-8226 leukemia, 33.9 µM; in the assay on RXF 393 renal it was 29.2 µM. In addition, the TGI came to 32.8 µM in the assay with SF-295 CNS; 30.1 µM in the assay with SK-MEL-2 melanoma; 38.6 µM in the assay with SK-MEL-28 melanoma; 39.6 µM in the assay with SK-OV-3 ovarian; 29 µM with T-47D breast; 30 µM with TK-10 renal.

For `O=C(OCc1ccc([N+](=O)[O-])cc1)N1c2ccccc2[C@@]23O[C@]24CCC[C@H]3C#C/C=C\C#C[C@H]14`, the TGI in the assay with HCC-2998 colon, with HCT-15 colon, in the assay on HL-60(TB) leukemia, in the assay with HOP-92 NSCLC, in the assay with HT29 colon and in the assay on LOX IMVI melanoma was greater than 100 µM in each case. Moreover, the TGI with MDA-MB-231 breast, with MDA-MB-435, with NCI/ADR-RES ovarian, in the assay with OVCAR-3 ovarian, in the assay on OVCAR-8 ovarian and in the assay with RXF 393 renal was greater than 100 µM throughout. The TGI with SF-295 CNS, in the assay on SK-MEL-2 melanoma, in the assay on SK-MEL-28 melanoma, with SK-OV-3 ovarian, in the assay on SW-620 colon and in the assay with T-47D breast was greater than 100 µM throughout. Besides, in the assay with TK-10 renal, the TGI was greater than 100 µM.

Regarding `CC(=O)OCC1OC(n2c3c(cc(C#N)c2=S)CCC3)C(OC(C)=O)C(OC(C)=O)C1OC(C)=O` (centres undefined), the TGI in the assay with HCC-2998 colon, in the assay with HCT-15 colon, in the assay on HL-60(TB) leukemia, in the assay with HOP-92 NSCLC, in the assay on HT29 colon and in the assay on LOX IMVI melanoma was greater than 100 µM throughout. For the same compound, the TGI in the assay with MDA-MB-231 breast, in the assay with MDA-MB-435, in the assay on NCI/ADR-RES ovarian, in the assay with OVCAR-8 ovarian, in the assay on RPMI-8226 leukemia and in the assay with RXF 393 renal was greater than 100 µM each time. Also, the TGI in the assay on SF-295 CNS, with SK-MEL-2 melanoma, with SK-MEL-28 melanoma, in the assay with SW-620 colon, in the assay on T-47D breast and in the assay with TK-10 renal was greater than 100 µM in each case.
